According to PubChem BioAssay (NCI):
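Tested at 5 concentrations; 48 h exposure; 96-well plates; endpoints linearly interpolated, else capped at highest concentration. GI50: concentration for 50% inhibition of growth. TGI denotes the concentration required for complete inhibition of growth.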

Assays:
Assay in all cases: NCI-60 cell line screen, 48 h
[1] = test system: 786-0 renal
[2] = test system: A498 renal
[3] = test system: A549 NSCLC
[4] = test system: ACHN renal
[5] = test system: BT-549 breast
[6] = test system: CAKI-1 renal
[7] = test system: CCRF-CEM leukemia
[8] = test system: COLO 205 colon
[9] = test system: DU-145 prostate
[10] = test system: EKVX NSCLC
[11] = test system: HCC-2998 colon
[12] = test system: HCT-116 colon
[13] = test system: HCT-15 colon
[14] = test system: HL-60(TB) leukemia
[15] = test system: HOP-62 NSCLC
[16] = test system: HOP-92 NSCLC
[17] = test system: HS 578T breast
[18] = test system: HT29 colon
[19] = test system: IGROV1 ovarian
[20] = test system: K-562 leukemia
[21] = test system: KM12 colon
[22] = test system: LOX IMVI melanoma
[23] = test system: M14 melanoma
[24] = test system: MCF7 breast
[25] = test system: MDA-MB-231 breast
[26] = test system: MDA-MB-435
[27] = test system: MOLT-4 leukemia
[28] = test system: NCI-H226 lung
[29] = test system: NCI-H23 lung
[30] = test system: NCI-H460 lung
[31] = test system: NCI-H522 lung
[32] = test system: NCI/ADR-RES ovarian
[33] = test system: OVCAR-3 ovarian
[34] = test system: OVCAR-4 ovarian
[35] = test system: OVCAR-5 ovarian
[36] = test system: OVCAR-8 ovarian
[37] = test system: PC-3 prostate
[38] = test system: RPMI-8226 leukemia
[39] = test system: RXF 393 renal
[40] = test system: SF-268 CNS
[41] = test system: SF-295 CNS
[42] = test system: SF-539 CNS
[43] = test system: SK-MEL-2 melanoma
[44] = test system: SK-MEL-28 melanoma
[45] = test system: SK-MEL-5 melanoma
[46] = test system: SK-OV-3 ovarian
[47] = test system: SN12C renal
[48] = test system: SNB-19 CNS
[49] = test system: SNB-75 CNS
[50] = test system: SW-620 colon
[51] = test system: T-47D breast
[52] = test system: TK-10 renal
[53] = test system: U251 CNS
[54] = test system: UACC-257 melanoma
[55] = test system: UACC-62 melanoma
[56] = test system: UO-31 renal
[57] = test system: MALME-3M melanoma

Which results are given for `C[C@@H]1CCC[C@]2(C)O[C@H]2CC[C@@](C)(O)[C@@H]2CC3=C(CO)C(=O)O[C@H]3[C@H]1O2`?
TGI [1]: > 50 µM; TGI [2]: > 50 µM; TGI [3]: > 50 µM; TGI [4]: > 50 µM; TGI [5]: > 50 µM; TGI [6]: > 50 µM; TGI [7]: > 50 µM; TGI [8]: > 50 µM; TGI [9]: > 50 µM; TGI [10]: > 50 µM; TGI [11]: > 50 µM; TGI [12]: > 50 µM; TGI [13]: > 50 µM; TGI [14]: > 5 µM; TGI [15]: > 50 µM; TGI [16]: > 50 µM; TGI [17]: > 50 µM; TGI [18]: > 50 µM; TGI [19]: > 50 µM; TGI [20]: > 50 µM; TGI [21]: > 50 µM; TGI [22]: > 50 µM; TGI [23]: > 50 µM; TGI [24]: > 50 µM; TGI [25]: > 50 µM; TGI [26]: > 50 µM; TGI [27]: > 50 µM; TGI [28]: > 50 µM; TGI [29]: > 50 µM; TGI [30]: > 50 µM; TGI [31]: > 50 µM; TGI [32]: > 50 µM; TGI [33]: > 50 µM; TGI [34]: > 50 µM; TGI [35]: > 50 µM; TGI [36]: > 50 µM; TGI [37]: > 50 µM; TGI [38]: > 50 µM; TGI [39]: > 50 µM; TGI [40]: > 50 µM; TGI [41]: > 50 µM; TGI [42]: > 50 µM; TGI [43]: > 50 µM; TGI [44]: > 50 µM; TGI [45]: > 50 µM; TGI [46]: > 50 µM; TGI [47]: > 50 µM; TGI [48]: > 50 µM; TGI [49]: > 50 µM; TGI [50]: > 50 µM; TGI [51]: > 50 µM; TGI [52]: > 50 µM; TGI [53]: > 50 µM; TGI [54]: > 50 µM; TGI [55]: > 50 µM; TGI [56]: > 50 µM

What does the source list for `Cc1ccc(C2=C(c3ccc(C)cc3)C3(c4ccc(C)cc4)[C@@H](C#N)[C@H](C#N)C2(c2ccc(C)cc2)S3=O)cc1` (some centres not stated)?
GI50 [1]: > 100 µM; TGI [1]: > 100 µM; GI50 [3]: > 100 µM; TGI [3]: > 100 µM; GI50 [4]: > 100 µM; TGI [4]: > 100 µM; GI50 [5]: > 100 µM; TGI [5]: > 100 µM; GI50 [6]: > 100 µM; TGI [6]: > 100 µM; GI50 [7]: > 100 µM; TGI [7]: > 100 µM; GI50 [8]: > 100 µM; TGI [8]: > 100 µM; GI50 [9]: > 100 µM; TGI [9]: > 100 µM; GI50 [10]: > 100 µM; TGI [10]: > 100 µM; GI50 [11]: > 100 µM; TGI [11]: > 100 µM; GI50 [12]: 48.5 µM; TGI [12]: > 100 µM; GI50 [13]: > 100 µM; TGI [13]: > 100 µM; GI50 [15]: > 100 µM; TGI [15]: > 100 µM; GI50 [17]: > 100 µM; TGI [17]: > 100 µM; GI50 [18]: > 100 µM; TGI [18]: > 100 µM; GI50 [19]: > 100 µM; TGI [19]: > 100 µM; GI50 [20]: 2.02 µM; TGI [20]: > 100 µM; GI50 [21]: > 100 µM; TGI [21]: > 100 µM; GI50 [22]: > 100 µM; TGI [22]: > 100 µM; GI50 [23]: 30.1 µM; TGI [23]: > 100 µM; GI50 [57]: > 100 µM; TGI [57]: > 100 µM; GI50 [24]: > 100 µM; TGI [24]: > 100 µM; GI50 [25]: > 100 µM; TGI [25]: > 100 µM; GI50 [26]: > 100 µM; TGI [26]: > 100 µM; GI50 [28]: > 100 µM; TGI [28]: > 100 µM; GI50 [29]: > 100 µM; TGI [29]: > 100 µM; GI50 [30]: > 100 µM; TGI [30]: > 100 µM; GI50 [31]: > 100 µM; TGI [31]: > 100 µM; GI50 [32]: > 100 µM; TGI [32]: > 100 µM; GI50 [33]: > 100 µM; TGI [33]: > 100 µM; GI50 [34]: > 100 µM; TGI [34]: > 100 µM; GI50 [35]: > 100 µM; TGI [35]: > 100 µM; GI50 [36]: > 100 µM; TGI [36]: > 100 µM; GI50 [37]: > 100 µM; TGI [37]: > 100 µM; GI50 [38]: > 100 µM; TGI [38]: > 100 µM; GI50 [39]: > 100 µM; TGI [39]: > 100 µM; GI50 [40]: > 100 µM; TGI [40]: > 100 µM; GI50 [41]: > 100 µM; TGI [41]: > 100 µM; GI50 [42]: > 100 µM; TGI [42]: > 100 µM; GI50 [43]: > 100 µM; TGI [43]: > 100 µM; GI50 [44]: > 100 µM; TGI [44]: > 100 µM; GI50 [45]: > 100 µM; TGI [45]: > 100 µM; GI50 [46]: > 100 µM; TGI [46]: > 100 µM; GI50 [47]: > 100 µM; TGI [47]: > 100 µM; GI50 [48]: > 100 µM; TGI [48]: > 100 µM; GI50 [49]: > 100 µM; TGI [49]: > 100 µM; GI50 [50]: > 100 µM; TGI [50]: > 100 µM; GI50 [51]: > 100 µM; TGI [51]: > 100 µM; GI50 [52]: > 100 µM; TGI [52]: > 100 µM; GI50 [53]: > 100 µM; TGI [53]: > 100 µM; GI50 [54]: > 100 µM; TGI [54]: > 100 µM; GI50 [55]: > 100 µM; TGI [55]: > 100 µM; GI50 [56]: > 100 µM; TGI [56]: > 100 µM
